We go through 23 molecules from US20100216802A1, “PTERIDINE DERIVATIVES AS POLO-LIKE KINASE INHIBITORS USEFUL IN THE TREATMENT OF CANCER” (CHROMA THERAPEUTICS LTD., priority 2006, published 2010).

T1 sequence (P53350 whole entry): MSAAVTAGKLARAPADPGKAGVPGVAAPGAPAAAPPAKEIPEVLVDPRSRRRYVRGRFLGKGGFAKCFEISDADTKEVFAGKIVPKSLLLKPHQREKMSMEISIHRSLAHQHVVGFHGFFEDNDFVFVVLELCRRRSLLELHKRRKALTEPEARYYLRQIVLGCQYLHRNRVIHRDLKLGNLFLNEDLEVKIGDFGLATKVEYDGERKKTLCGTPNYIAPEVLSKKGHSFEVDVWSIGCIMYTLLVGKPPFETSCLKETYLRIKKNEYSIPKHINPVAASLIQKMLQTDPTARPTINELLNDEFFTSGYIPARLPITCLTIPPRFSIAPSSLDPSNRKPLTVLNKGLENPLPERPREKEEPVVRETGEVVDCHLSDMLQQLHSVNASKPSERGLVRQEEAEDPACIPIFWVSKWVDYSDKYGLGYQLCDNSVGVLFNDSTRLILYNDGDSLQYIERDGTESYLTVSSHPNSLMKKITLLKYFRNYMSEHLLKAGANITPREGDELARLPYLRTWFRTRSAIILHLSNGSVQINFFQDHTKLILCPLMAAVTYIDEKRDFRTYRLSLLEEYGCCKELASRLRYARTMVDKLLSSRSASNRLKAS

The first assay relates to HCT 116 cell line. In words: Cell inhibition assay method A (WST-1, 120 hrs). It counts as cell-based. Conditions: Homo sapiens, HCT-116, method A, read-out: Inhibitor Activity vs HCT 116 cell line (method A). The procedure:
Cell inhibition assays were carried out using either method A or method B
Cells were seeded in 96W tissue culture plates (1 well=30 mm^2) at a density of […] per well in 50 μL of the appropriate culture medium (see below). 24 hrs later […] of the compound prepared in the same medium was added as 4 fold dilutions to give final concentrations in the range 0.15 nM-2500 nM (n=6 for each concentration). The plates were then incubated at 37° C., 5% CO2 for 120 hrs. Cell proliferation was assessed using WST-1 (a metabolic indicator dye, Roche Cat no. 1 644 807) according to the manufacturers instructions. The results were calculated as percentage of vehicle response and IC50 values represent the concentration of compound that inhibited the vehicle response by 50%.
HCT-116 culture medium —Dulbeccos MEM (Sigma D6546) plus 10% heat inactivated fetal calf serum (Hyclone SH30071 Thermo Fischer Scientific) containing 2 mM Glutamine (Sigma cat no G-7513) and 50 U/ml Penicillin and Streptomycin Sulphate (Sigma Cat no P-0781).
`CC[C@@H]1C(=O)N(C)c2cnc(Nc3ccc(C[C@H](N)C(=O)OC4CCCC4)cc3)nc2N1C1CCCC1` [Example 1, Cyclopentyl 4-{[(7R)-8-cyclopentyl-7-ethyl-5-methyl-6-oxo-5,6,7,8-tetrahydropteridin-2-yl]amino}-L-phenylalaninate]: the IC50 fell in the range of 0.1 to 0.5 µM.
On the same count and under the same terms, for `CC[C@@H]1C(=O)N(C)c2cnc(Nc3ccc(/C=C/C[C@H](N)C(=O)OC4CCCC4)cc3)nc2N1C1CCCC1` [Example 2] the value was less than 0.1 µM.

Another assay has as its target T1, PLK1 (Homo sapiens, UniProt P53350).
T1 construct: purchased Invitrogen (Paisley, UK)
As to the kind of experiment: PLK1 enzyme assay (Z'-LYTE, Invitrogen). It counts as biochemical. Conditions: ATP at or close to Km; read-out: Inhibitor Activity vs PLK1. As to the method: The ability of compounds to inhibit PLK-1 kinase activity was measured in an assay performed by Invitrogen (Paisley, UK). The Z′-LYTE™ biochemical assay employs a fluorescence-based, coupled-enzyme format and is based on the differential sensitivity of phosphorylated and non-phosphorylated peptides to proteolytic cleavage. The peptide substrate is labelled with two fluorophores—one at each end—that make up a FRET pair. In the primary reaction, the kinase transfers the gamma-phosphate of ATP to a single serine or threonine residue in a synthetic FRET-peptide. In the secondary reaction, a site-specific protease recognizes and cleaves non-phosphorylated FRET-peptides. Phosphorylation of FRET-peptides suppresses cleavage by the Development Reagent. Cleavage disrupts FRET between the donor (i.e., coumarin) and acceptor (i.e., fluorescein) fluorophores on the FRET-peptide, whereas uncleaved, phosphorylated FRET-peptides maintain FRET. A […] method, which calculates the ratio (the Emission Ratio) of donor emission to acceptor emission after excitation of the donor fluorophore at 400 nm, is used to quantitate reaction progress.
The assay is performed at an ATP concentration at, or close to, the Km. After the 60 minute Kinase Reaction incubation at RT, 5 μL of a 1:8 dilution of Development Reagent is added. The assay plate is incubated for a further 60 minutes at RT and read on a fluorescence plate reader.
Duplicate data points are generated from a ⅓ log dilution series of a stock solution of test compound in DMSO. Nine dilutions steps are made from a top concentration of 10 μM, and a ‘no compound’ blank is included. Data is collected and analysed using XLfit software from IDBS.
With `CC[C@@H]1C(=O)N(C)c2cnc(Nc3ccc(C[C@H](N)C(=O)OC4CCCC4)cc3)nc2N1C1CCCC1` [Example 1, Cyclopentyl 4-{[(7R)-8-cyclopentyl-7-ethyl-5-methyl-6-oxo-5,6,7,8-tetrahydropteridin-2-yl]amino}-L-phenylalaninate], the IC50 was less than 100 nM.
`CC[C@@H]1C(=O)N(C)c2cnc(Nc3ccc(/C=C/C[C@H](N)C(=O)OC4CCCC4)cc3)nc2N1C1CCCC1` [Example 2]: the IC50 was less than 100 nM.
For `CC[C@@H]1C(=O)N(C)c2cnc(Nc3ccc(C(=O)NC4CCN(CC[C@H](N)C(=O)O[C@@H]5C[C@H](C)CC[C@H]5C(C)C)CC4)cc3OC)nc2N1C1CCCC1` [Example 32], the IC50 is less than 100 nM.
Same read-out and setting: then `CC[C@@H]1C(=O)N(C)c2cnc(Nc3ccc(C(=O)Nc4ccc(C[C@H](N)C(=O)O)cc4)cc3OC)nc2N1C1CCCC1` [Example 33], with less than 100 nM; and `CC[C@@H]1C(=O)N(C)c2cnc(Nc3ccc(C[C@H](N)C(=O)O)cc3)nc2N1C1CCCC1` [Example 34, 4-{[(7R)-8-Cyclopentyl-7-ethyl-5-methyl-6-oxo-5,6,7,8-tetrahydropteridin-2-yl]amino}-L-phenylalanine], with less than 100 nM.
Same read-out and setting: for `CC[C@@H]1C(=O)N(C)c2cnc(Nc3ccc(/C=C/C[C@H](N)C(=O)O)cc3)nc2N1C1CCCC1` [Example 35, (2S,4E)-2-Amino-5-(4-{[(7R)-8-cyclopentyl-7-ethyl-5-methyl-6-oxo-5,6,7,8-tetrahydropteridin-2-yl]amino}phenyl)pent-4-enoic acid] the value was less than 100 nM; for `CC[C@@H]1C(=O)N(C)c2cnc(Nc3ccc(OCC[C@H](N)C(=O)O)cc3)nc2N1C1CCCC1` [Example 36, O-(4-{[(7R)-8-Cyclopentyl-7-ethyl-5-methyl-6-oxo-5,6,7,8-tetrahydropteridin-2-yl]amino}phenyl)-L-homoserine], less than 100 nM; for `CC[C@@H]1C(=O)N(C)c2cnc(Nc3ccc(OCC[C@H](N)C(=O)O)cc3OC)nc2N1C1CCCC1` [Example 37, O-(4-{[(7R)-8-Cyclopentyl-7-ethyl-5-methyl-6-oxo-5,6,7,8-tetrahydropteridin-2-yl]amino}-3-methoxyphenyl)-L-homoserine], less than 100 nM.
In the case of `CCC1C(=O)N(C)c2cnc(Nc3ccc(C(=O)NCCC(N)C(=O)O)cc3OC)nc2N1C1CCCC1` [Example 38, (2S)-2-Amino-4-[(4-{[(7R)-8-cyclopentyl-7-ethyl-5-methyl-6-oxo-5,6,7,8-tetrahydropteridin-2-yl]amino}-3-methoxybenzoyl)amino]butananoic acid], the IC50 was less than 100 nM.
Same read-out and setting: for `CC[C@@H]1C(=O)N(C)c2cnc(Nc3ccc(C(=O)N[C@@H]4CN[C@H](C(=O)O)C4)cc3OC)nc2N1C1CCCC1` [Example 39, (4S)-4-[(4-{[(7R)-8-Cyclopentyl-7-ethyl-5-methyl-6-oxo-5,6,7,8-tetrahydropteridin-2-yl]amino}-3-methoxybenzoyl)amino]-L-proline] the value was less than 100 nM; for `CC[C@@H]1C(=O)N(C)c2cnc(Nc3ccc(C(=O)NCCCC[C@H](N)C(=O)O)cc3OC)nc2N1C1CCCC1` [Example 40, N^6-(4-{[(7R)-8-cyclopentyl-7-ethyl-5-methyl-6-oxo-5,6,7,8-tetrahydropteridin-2-yl]amino}-3-methoxybenzoyl)lysine], less than 100 nM.
`CC[C@@H]1C(=O)N(C)c2cnc(Nc3ccc(C(=O)NCc4ccc(OCC[C@H](N)C(=O)O)cc4)cc3OC)nc2N1C1CCCC1` [Example 41, O-(4-{[(4-{[(7R)-8-Cyclopentyl-7-ethyl-5-methyl-6-oxo-5,6,7,8-tetrahydropteridin-2-yl]amino}-3-methoxybenzoyl)amino]methyl}phenyl)-L-homoserine]: the IC50 is less than 100 nM.
Same read-out and setting: for `CC[C@@H]1C(=O)N(C)c2cnc(Nc3ccc(C(=O)N4CCNC(C(=O)O)C4)cc3OC)nc2N1C1CCCC1` (stereo partly drawn) [Example 42, 4-(4-{[(7R)-8-Cyclopentyl-7-ethyl-5-methyl-6-oxo-5,6,7,8-tetrahydropteridin-2-yl]amino}-3-methoxybenzoyl)piperazine-2-carboxylic acid] the value was less than 100 nM.
For `CC[C@@H]1C(=O)N(C)c2cnc(Nc3ccc(C(=O)NCCN4CCNC(C(=O)O)C4)cc3OC)nc2N1C1CCCC1` (stereo partly drawn) [Example 43, 4-{2-[(4-{[(7R)-8-Cyclopentyl-7-ethyl-5-methyl-6-oxo-5,6,7,8-tetrahydropteridin-2-yl]amino}-3-methoxybenzoyl)amino]ethyl}piperazine-2-carboxylic acid], the IC50 was less than 100 nM.
For the molecule `CC[C@@H]1C(=O)N(C)c2cnc(Nc3ccc(C(=O)NC4CCN(CC[C@H](N)C(=O)O)C4)cc3OC)nc2N1C1CCCC1` (stereo partly drawn) [Example 44, (2S)-2-amino-4-{3-[(4-{[(7R)-8-Cyclopentyl-7-ethyl-5-methyl-6-oxo-5,6,7,8-tetrahydropteridin-2-yl]amino}-3-methoxybenzoyl)amino]pyrrolidin-1-yl}butanoic acid], the IC50 is less than 100 nM.
Same read-out and setting: for `CC[C@@H]1C(=O)N(C)c2cnc(Nc3ccc(C(=O)NC4C5CN(CC[C@H](N)C(=O)O)CC54)cc3OC)nc2N1C1CCCC1` (stereo partly drawn) [Example 45, (2S)-2-Amino-4-{6-[(4-{[(7R)-8-cyclopentyl-7-ethyl-5-methyl-6-oxo-5,6,7,8-tetrahydropteridin-2-yl]amino}-3-methoxybenzoyl)amino]-3-azabicyclo[3.1.0]hex-3-yl} butanoic acid] the value was less than 100 nM; for `CC[C@@H]1C(=O)N(C)c2cnc(Nc3ccc(C(=O)NC4CCN(CCC[C@H](N)C(=O)O)CC4)cc3OC)nc2N1C1CCCC1` [Example 46, 5-{4-[(4-{[(7R)-8-Cyclopentyl-7-ethyl-5-methyl-6-oxo-5,6,7,8-tetrahydropteridin-2-yl]amino}-3-methoxybenzoyl)amino]piperidin-1-yl}-L-norvaline], less than 100 nM.
Consider `CC[C@@H]1C(=O)N(C)c2cnc(Nc3ccc(C(=O)NC4CCN(CCC[C@@H](N)C(=O)O)CC4)cc3OC)nc2N1C1CCCC1` [Example 47, 5-{4-[(4-{[(7R)-8-Cyclopentyl-7-ethyl-5-methyl-6-oxo-5,6,7,8-tetrahydropteridin-2-yl]amino}-3-methoxybenzoyl)amino]piperidin-1-yl}-D-norvaline], for which the IC50 is less than 100 nM.
For `CC[C@@H]1C(=O)N(C)c2cnc(Nc3ccc(C(=O)NC4CCN(CC[C@H](N)C(=O)O)CC4)cc3C)nc2N1C1CCCC1` [Example 48, (2S)-2-Amino-4-{4-[(4-{[(7R)-8-cyclopentyl-7-ethyl-5-methyl-6-oxo-5,6,7,8-tetra hydropteridin-2-yl]amino}-3-methylbenzoyl)amino]piperidin-1-yl}butanoic acid], the IC50 was less than 100 nM.
`CC[C@@H]1C(=O)N(C)c2cnc(Nc3ccc(C(=O)NC4CCN(CC[C@H](N)C(=O)O)CC4)cc3F)nc2N1C1CCCC1` [Example 49, (2S)-2-Amino-4-{4-[(4-{[(7R)-8-cyclopentyl-7-ethyl-5-methyl-6-oxo-5,6,7,8-tetra hydropteridin-2-yl]amino}-3-fluorobenzoyl)amino]piperidin-1-yl}butanoic acid]: the IC50 was less than 100 nM.
For `CC[C@@H]1C(=O)N(C)c2cnc(Nc3ccc(C(=O)NC4CCN(CC[C@@H](N)C(=O)O)CC4)cc3OC)nc2N1C1CCCC1` [Example 50, (2R)-2-Amino-4-{4-[(4-{[(7R)-8-cyclopentyl-7-ethyl-5-methyl-6-oxo-5,6,7,8-tetra hydropteridin-2-yl]amino}-3-methoxybenzoyl)amino]piperidin-1-yl}butanoic acid], the IC50 is less than 100 nM.
For `CC[C@@H]1C(=O)N(C)c2cnc(Nc3ccc(C(=O)N4CCNC(C(=O)O)C4)cc3OC)nc2N1C1CCCC1` (stereo partly drawn) [Example 52, 4-(4-{[(7R)-8-cyclopentyl-7-ethyl-5-methyl-6-oxo-5,6,7,8-tetrahydropteridin-2-yl]amino}-3-methoxbenzoyl)piperazine-2-carboxylic acid], the IC50 was less than 100 nM.
Consider `CC[C@@H]1C(=O)N(C)c2cnc(Nc3ccc(C(=O)NC4CCN(CC[C@H](N)C(=O)O)CC4)cc3OC)nc2N1C1CCCC1` [Example 53, (2S)-2-amino-4-{4-[(4-{[(7R)-8-cyclopentyl-7-ethyl-5-methyl-6-oxo-5,6,7,8-tetrahydropteridin-2-yl]amino}-3-methoxybenzoyl)amino]piperidin-1-yl}butanoic acid], for which the IC50 is less than 100 nM.

The assay is the same for the next values; noted with them: acid of the ester; read-out: Inhibition of PLK (IC50, nM) acid.
Take `CC[C@@H]1C(=O)N(C)c2cnc(Nc3ccc(C(=O)NC4CCN(CC[C@H](N)C(=O)O)CC4)cc3OC)nc2N1C1CCCC1` [Example 53, (2S)-2-amino-4-{4-[(4-{[(7R)-8-cyclopentyl-7-ethyl-5-methyl-6-oxo-5,6,7,8-tetrahydropteridin-2-yl]amino}-3-methoxybenzoyl)amino]piperidin-1-yl}butanoic acid]: the IC50 amounted to 6 nM.
